Bridge positions count the residues as written; N and C are the ends. Square brackets hold non-standard residues; d marks the D form. Peptide text beside a SMILES is read from it. * marks the point of attachment. Bip = N[C@@H](Cc1ccc(-c2ccccc2)cc1)C(=O)O; Phe(3-Me) = Cc1cccc(C[C@H](N)C(=O)O)c1; 3Pal = N[C@@H](Cc1cccnc1)C(=O)O; 4Pal = N[C@@H](Cc1ccncc1)C(=O)O; Cha = N[C@@H](CC1CCCCC1)C(=O)O; Carboxymethyl = O=C(O)C*; Orn = NCCC[C@H](N)C(=O)O; Aun = NCCCCCCCCCCC(=O)O; Dab = NCC[C@H](N)C(=O)O; Dap = NC[C@H](N)C(=O)O; AEEA = NCCOCCOCC(=O)O

T1 sequence (Q15116 25-288): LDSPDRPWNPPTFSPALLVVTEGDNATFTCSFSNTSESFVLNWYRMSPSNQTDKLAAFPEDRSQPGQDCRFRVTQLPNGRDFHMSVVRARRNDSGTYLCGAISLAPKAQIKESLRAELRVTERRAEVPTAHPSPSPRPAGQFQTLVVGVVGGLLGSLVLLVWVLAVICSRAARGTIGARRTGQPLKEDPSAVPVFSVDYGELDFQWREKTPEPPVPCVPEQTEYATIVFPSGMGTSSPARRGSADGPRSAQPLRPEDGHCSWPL

This assay concerns the target T1, PD-1/PD-L1 interaction (PE-labeled human PD-L1-Ig binding to Jurkat cell line over-expressing human PD-1) (Homo sapiens, UniProt Q15116).
T1 construct: expressed in transfected cells; host or cells: Jurkat
The experiment in a line: Jurkat-PD-1 Cell Binding High-Content Screening Assay (CBA). The following applies: Jurkat cell line over-expressing human PD-1; PE-labeled PD-L1-Ig 20 nM final; read-out: Jurkat hPD1-PDL1 IC50. The format is cell-based. An outline of the steps: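 First, compound is added to PD-1-expressing Jurkat cells in serum-containing DMEM and left 2 h at 37° C. Next, PE-conjugated PD-L1-Ig is introduced at 20 nM final concentration for 1 hour. Finally, cells are fixed in 4% paraformaldehyde with Hoechst 33342, washed and imaged.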
Regarding `Cc1cccc(C[C@@H]2NC(=O)[C@H](CC(=O)O)NC(=O)[C@H](Cc3ccc(OCC(=O)O)cc3)NC(=O)[C@H](CN)NC(=O)CSC[C@@H](C(=O)NCCOCCOCC(=O)NCCCCCCCCCCC(=O)O)NC(=O)[C@H](CCCN)NC(=O)[C@H](C(C)C)NC(=O)[C@H](CC3CCCCC3)NC(=O)[C@H](CCN)NC(=O)[C@@H](CC(C)C)NC(=O)[C@H](CCCN)NC(=O)[C@H](Cc3ccc(O)cc3)NC(=O)[C@H](Cc3ccc(-c4ccccc4)cc3)NC(=O)[C@H](Cc3ccc(O)cc3)NC2=O)c1` [Compound 2691] ({CH2CO}-[Dap]Y(Carboxymethyl)D[Phe(3-Me)]Y[Bip]Y[Orn][dL][Dab][Cha]V[Orn]C[AEEA][Aun]-OH; thioether N-14), the concentration for half-maximal inhibition (IC50) came out at 0.015 µM. As to `Cc1cccc(C[C@@H]2NC(=O)[C@H](CC(=O)O)NC(=O)[C@H](Cc3ccc(OCC(=O)O)cc3)NC(=O)[C@H](CN)NC(=O)CSC[C@@H](C(=O)NCCOCCOCC(=O)NCCCCCCCCCCC(=O)O)NC(=O)[C@H](CCCN)NC(=O)[C@H](C(C)C)NC(=O)[C@H](CC3CCCCC3)NC(=O)[C@H](CCN)NC(=O)[C@@H](CC(C)C)NC(=O)[C@H](CCCN)NC(=O)[C@H](Cc3ccc(O)cc3)NC(=O)[C@H](Cc3ccc(-c4ccccc4)cc3)NC(=O)[C@H](C(C)C)NC2=O)c1` [Compound 2692] ({CH2CO}-[Dap]Y(Carboxymethyl)D[Phe(3-Me)]V[Bip]Y[Orn][dL][Dab][Cha]V[Orn]C[AEEA][Aun]-OH; thioether N-14), the IC50 was determined as 0.0063 µM.

Regarding `Cc1cccc(C[C@@H]2NC(=O)[C@H](CC(=O)O)NC(=O)[C@H](Cc3ccc(OCC(=O)O)cc3)NC(=O)[C@H](CN)NC(=O)CSC[C@@H](C(=O)NCCCCCCCCCCC(=O)O)NC(=O)[C@H](CCCN)NC(=O)[C@H](C(C)C)NC(=O)[C@H](CC3CCCCC3)NC(=O)[C@H](CCN)NC(=O)[C@@H](CC(C)C)NC(=O)[C@H](CCCN)NC(=O)[C@H](Cc3ccc(O)cc3)NC(=O)[C@H](Cc3ccc(-c4ccccc4)cc3)NC(=O)[C@H](Cc3ccc(O)cc3)NC2=O)c1` [Compound 2693] ({CH2CO}-[Dap]Y(Carboxymethyl)D[Phe(3-Me)]Y[Bip]Y[Orn][dL][Dab][Cha]V[Orn]C[Aun]-OH; thioether N-14), the IC50 stood at 0.013 µM. Turning to `Cc1cccc(C[C@@H]2NC(=O)[C@H](CC(=O)O)NC(=O)[C@H](Cc3ccc(OCC(=O)O)cc3)NC(=O)[C@H](CN)NC(=O)CSC[C@@H](C(=O)NCCCCCCCCCCC(=O)O)NC(=O)[C@H](CCCN)NC(=O)[C@H](C(C)C)NC(=O)[C@H](CC3CCCCC3)NC(=O)[C@H](CCN)NC(=O)[C@@H](CC(C)C)NC(=O)[C@H](CCCN)NC(=O)[C@H](Cc3ccc(O)cc3)NC(=O)[C@H](Cc3ccc(-c4ccccc4)cc3)NC(=O)[C@H](C(C)C)NC2=O)c1` [Compound 2694] ({CH2CO}-[Dap]Y(Carboxymethyl)D[Phe(3-Me)]V[Bip]Y[Orn][dL][Dab][Cha]V[Orn]C[Aun]-OH; thioether N-14), the IC50 was determined as 0.0099 µM. Regarding `Cc1cccc(C[C@@H]2NC(=O)[C@H](CC(=O)O)NC(=O)[C@H](Cc3ccc(O)cc3)NC(=O)[C@H](CC(N)=O)NC(=O)CSC[C@@H](C(=O)N[C@@H](CCN)C(=O)NCCOCCOCC(=O)NCCCCCCCCCCC(=O)O)NC(=O)[C@H](CCCN)NC(=O)[C@H](C(C)C)NC(=O)[C@H](CC3CCCCC3)NC(=O)[C@H](CCN)NC(=O)[C@@H](CC(C)C)NC(=O)[C@H](CCCN)NC(=O)[C@H](Cc3ccc(O)cc3)NC(=O)[C@H](Cc3ccc(-c4ccccc4)cc3)NC(=O)[C@H](C(C)C)NC2=O)c1` [Compound 2695] ({CH2CO}-NYD[Phe(3-Me)]V[Bip]Y[Orn][dL][Dab][Cha]V[Orn]C[Dab][AEEA][Aun]-OH; thioether N-14), the IC50 stood at 0.0051 µM. Under `Cc1cccc(C[C@@H]2NC(=O)[C@H](CC(=O)O)NC(=O)[C@H](Cc3ccc(O)cc3)NC(=O)[C@H](CC(N)=O)NC(=O)CSC[C@@H](C(=O)N[C@@H](CCN)C(=O)NCCCCCCCCCCC(=O)O)NC(=O)[C@H](CCCN)NC(=O)[C@H](C(C)C)NC(=O)[C@H](CC3CCCCC3)NC(=O)[C@H](CCN)NC(=O)[C@@H](CC(C)C)NC(=O)[C@H](CCCN)NC(=O)[C@H](Cc3ccc(O)cc3)NC(=O)[C@H](Cc3ccc(-c4ccccc4)cc3)NC(=O)[C@H](C(C)C)NC2=O)c1` [Compound 2696] ({CH2CO}-NYD[Phe(3-Me)]V[Bip]Y[Orn][dL][Dab][Cha]V[Orn]C[Dab][Aun]-OH; thioether N-14) stands 0.0191 µM; under `Cc1cccc(C[C@@H]2NC(=O)[C@H](CC(=O)O)NC(=O)[C@H](Cc3ccc(OCC(=O)O)cc3)NC(=O)[C@H](CC(N)=O)NC(=O)CSC[C@@H](C(=O)N[C@@H](CCN)C(=O)NCCOCCOCC(=O)NCCCCCCCCCCC(=O)O)NC(=O)[C@H](CCCN)NC(=O)[C@H](C(C)C)NC(=O)[C@H](CC3CCCCC3)NC(=O)[C@H](CCN)NC(=O)[C@@H](CC(C)C)NC(=O)[C@H](CCCN)NC(=O)[C@H](Cc3ccc(O)cc3)NC(=O)[C@H](Cc3ccc(-c4ccccc4)cc3)NC(=O)[C@H](C(C)C)NC2=O)c1` [Compound 2697] ({CH2CO}-NY(Carboxymethyl)D[Phe(3-Me)]V[Bip]Y[Orn][dL][Dab][Cha]V[Orn]C[Dab][AEEA][Aun]-OH; thioether N-14), 0.0049 µM. Under `Cc1cccc(C[C@@H]2NC(=O)[C@H](CC(=O)O)NC(=O)[C@H](Cc3ccc(OCC(=O)O)cc3)NC(=O)[C@H](CC(N)=O)NC(=O)CSC[C@@H](C(=O)N[C@@H](CCN)C(=O)NCCCCCCCCCCC(=O)O)NC(=O)[C@H](CCCN)NC(=O)[C@H](C(C)C)NC(=O)[C@H](CC3CCCCC3)NC(=O)[C@H](CCN)NC(=O)[C@@H](CC(C)C)NC(=O)[C@H](CCCN)NC(=O)[C@H](Cc3ccc(O)cc3)NC(=O)[C@H](Cc3ccc(-c4ccccc4)cc3)NC(=O)[C@H](C(C)C)NC2=O)c1` [Compound 2698] ({CH2CO}-NY(Carboxymethyl)D[Phe(3-Me)]V[Bip]Y[Orn][dL][Dab][Cha]V[Orn]C[Dab][Aun]-OH; thioether N-14) stands 0.011 µM; under `Cc1cccc(C[C@@H]2NC(=O)[C@H](CC(=O)O)NC(=O)[C@H](Cc3cccnc3)NC(=O)[C@H](CC(N)=O)NC(=O)CSC[C@@H](C(=O)N[C@@H](CCN)C(=O)NCCCCCCCCCCC(=O)O)NC(=O)[C@H](CCCN)NC(=O)[C@H](C(C)C)NC(=O)[C@H](CC3CCCCC3)NC(=O)[C@H](CCN)NC(=O)[C@@H](CC(C)C)NC(=O)[C@H](CCCN)NC(=O)[C@H](Cc3ccc(O)cc3)NC(=O)[C@H](Cc3ccc(-c4ccccc4)cc3)NC(=O)[C@H](C(C)C)NC2=O)c1` [Compound 2700] ({CH2CO}-N[3Pal]D[Phe(3-Me)]V[Bip]Y[Orn][dL][Dab][Cha]V[Orn]C[Dab][Aun]-OH; thioether N-14), 0.0179 µM. Turning to `CC(C)C[C@H]1NC(=O)[C@H](CCCN)NC(=O)[C@H](Cc2ccc(O)cc2)NC(=O)[C@H](Cc2ccc(-c3ccccc3)cc2)NC(=O)[C@H](C(C)C)NC(=O)[C@H](Cc2c[nH]c3ccccc23)NC(=O)[C@H](CC(=O)O)NC(=O)[C@H](Cc2ccc(OCC(=O)O)cc2)NC(=O)[C@H](Cc2ccncc2)NC(=O)CSC[C@@H](C(=O)N[C@@H](CCN)C(=O)NCCOCCOCC(=O)NCCCCCCCCCCC(=O)O)NC(=O)[C@H](CCCN)NC(=O)[C@H](C(C)C)NC(=O)[C@H](CC2CCCCC2)NC(=O)[C@H](CCN)NC1=O` [Compound 2701] ({CH2CO}-[4Pal]Y(Carboxymethyl)DWV[Bip]Y[Orn][dL][Dab][Cha]V[Orn]C[Dab][AEEA][Aun]-OH; thioether N-14), the IC50 amounted to 0.0067 µM. On to `CC(C)C[C@H]1NC(=O)[C@H](CCCN)NC(=O)[C@H](Cc2ccc(O)cc2)NC(=O)[C@H](Cc2ccc(-c3ccccc3)cc2)NC(=O)[C@H](C(C)C)NC(=O)[C@H](Cc2c[nH]c3ccccc23)NC(=O)[C@H](CC(=O)O)NC(=O)[C@H](Cc2ccc(OCC(=O)O)cc2)NC(=O)[C@H](Cc2ccncc2)NC(=O)CSC[C@@H](C(=O)N[C@@H](CCN)C(=O)NCCCCCCCCCCC(=O)O)NC(=O)[C@H](CCCN)NC(=O)[C@H](C(C)C)NC(=O)[C@H](CC2CCCCC2)NC(=O)[C@H](CCN)NC1=O` [Compound 2702] ({CH2CO}-[4Pal]Y(Carboxymethyl)DWV[Bip]Y[Orn][dL][Dab][Cha]V[Orn]C[Dab][Aun]-OH; thioether N-14), for which the IC50 was 0.0257 µM. As for `CC(C)C[C@H]1NC(=O)[C@H](CCCN)NC(=O)[C@H](Cc2ccc(O)cc2)NC(=O)[C@H](Cc2ccc(-c3ccccc3)cc2)NC(=O)[C@H](C(C)C)NC(=O)[C@H](Cc2c[nH]c3ccccc23)NC(=O)[C@H](CC(=O)O)NC(=O)[C@H](Cc2ccc(O)cc2)NC(=O)[C@H](Cc2ccncc2)NC(=O)CSC[C@@H](C(=O)N[C@@H](CCN)C(=O)NCCOCCOCC(=O)NCCCCCCCCCCC(=O)O)NC(=O)[C@H](CCCN)NC(=O)[C@H](C(C)C)NC(=O)[C@H](CC2CCCCC2)NC(=O)[C@H](CCN)NC1=O` [Compound 2703] ({CH2CO}-[4Pal]YDWV[Bip]Y[Orn][dL][Dab][Cha]V[Orn]C[Dab][AEEA][Aun]-OH; thioether N-14), the IC50 worked out at 0.0193 µM. As for `CC(C)C[C@H]1NC(=O)[C@H](CCCN)NC(=O)[C@H](Cc2ccc(O)cc2)NC(=O)[C@H](Cc2ccc(-c3ccccc3)cc2)NC(=O)[C@H](C(C)C)NC(=O)[C@H](Cc2c[nH]c3ccccc23)NC(=O)[C@H](CC(=O)O)NC(=O)[C@H](Cc2ccc(O)cc2)NC(=O)[C@H](Cc2ccncc2)NC(=O)CSC[C@@H](C(=O)N[C@@H](CCN)C(=O)NCCCCCCCCCCC(=O)O)NC(=O)[C@H](CCCN)NC(=O)[C@H](C(C)C)NC(=O)[C@H](CC2CCCCC2)NC(=O)[C@H](CCN)NC1=O` [Compound 2704] ({CH2CO}-[4Pal]YDWV[Bip]Y[Orn][dL][Dab][Cha]V[Orn]C[Dab][Aun]-OH; thioether N-14), the figure is 0.0267 µM.

What is called IC50 is the concentration needed to halve the response being measured.

For the origin of these results see patent US20260022142A1, “MACROCYCLIC IMMUNOMODULATORS” (Bristol-Myers Squibb Company, priority 2022, published 2026).
